The text below walks through data of ChEMBL document CHEMBL1212740, “Long-lasting enfuvirtide carrier pentasaccharide conjugates with potent anti-human immunodeficiency virus type 1 activity” (Antimicrob Agents Chemother, 2010).

The subject of data set [1] is Human immunodeficiency virus 1. Kind of data set: Antiviral activity against HIV1 3B/LA1 infected in HUT-78 cells co-cultured with uninfected human SupT1 CD4+ T-cell assessed as inhibition of envelope mediated cell-cell fusion after 16-20 hrs by cell-cell fusion assay. The format is functional, organism-based. The note with it: Human immunodeficiency virus 1, 3B/LA1, HuT78.

Data set [2] relates to Human immunodeficiency virus 1. The data set is described as follows: Antiviral activity against HIV1 3B/LA1 infected in human CD4+ T-cell assessed as inhibition of giant cell formation. As to conditions: Human immunodeficiency virus 1, 3B/LA1, CD4+ T cell. The format is functional, organism-based.
In data set [3] the test system is Human immunodeficiency virus 1. Kind of data set: Antiviral activity against HIV1 ETH2220 in human PBMC assessed as p24 antigen level by ELISA. Type of data set: functional, organism-based. As to conditions: Human immunodeficiency virus 1, ETH2220. (In general: In an ELISA, binding on a coated surface is turned into a signal by an enzyme label.)
The subject of the next data set is CCRF-CEM. The data set is described as follows: Cytotoxicity against human CEM cells up to 100 uM by MTS assay. Type of data set: cell-based. In general terms: Tetrazolium dyes change colour on reduction, which living cells bring about.
Data set [4] concerns Human immunodeficiency virus 1. Kind of data set: Antiviral activity against HIV1 Ba-L in human PBMC assessed as p24 antigen level by ELISA. Type of data set: functional, organism-based. The note with it: Human immunodeficiency virus 1, Ba-L.
For data set [5], the system named is Human immunodeficiency virus 1. The data set is described as follows: Antiviral activity against HIV1 strain I-2496 in human PBMC assessed as p24 antigen level by ELISA. The note with it: Human immunodeficiency virus 1, I-2496. Type of data set: functional, organism-based.
In data set [6] the test system is Human immunodeficiency virus 1. The data set is described as follows: Antiviral activity against HIV1 DJ259 in human PBMC assessed as p24 antigen level by ELISA. As to conditions: Human immunodeficiency virus 1, DJ259. Type of data set: functional, organism-based.
Data set [7] relates to Human immunodeficiency virus 1. Kind of data set: Antiviral activity against HIV1 US2 clade B, R5 in human PBMC assessed as p24 antigen level by ELISA. Type of data set: functional, organism-based. As to conditions: Human immunodeficiency virus 1, US2.
In data set [8] the test system is Human immunodeficiency virus 2. The data set is described as follows: Antiviral activity against Human immunodeficiency virus 2 ROD infected in human CD4+ T-cell assessed as inhibition of giant cell formation. As to conditions: Human immunodeficiency virus 2, ISOLATE ROD. The format is functional, organism-based.
In data set [9] the test system is Human immunodeficiency virus 1. Kind of data set: Antiviral activity against HIV1 NL4.3 in human PBMC assessed as p24 antigen level by ELISA. Type of data set: functional, organism-based. The note with it: Human immunodeficiency virus 1, NL4.3.
The subject of another data set is PBMC. The data set is described as follows: Cytotoxicity against human PBMC up to 100 uM by MTS assay. The format is cell-based.
Data set [10] relates to Human immunodeficiency virus 1. The data set is described as follows: Antiviral activity against HIV1 UG273 clade A, R5 in human PBMC assessed as p24 antigen level by ELISA. The format is functional, organism-based. As to conditions: Human immunodeficiency virus 1, UG273.
Data set [11] can be described thus: Elimination half life in Wister rat at 4 mg/ kg, iv. More on the design: dose 4 mg/ kg, route intravenous. As to conditions: Wistar, in vivo. The format is ADME, organism-based.
In data set [12] the test system is Human immunodeficiency virus 1. The data set is described as follows: Antiviral activity against HIV1 BZ167 in human PBMC assessed as p24 antigen level by ELISA. The format is functional, organism-based. As to conditions: Human immunodeficiency virus 1, BZ167.

The term EC50 denotes the midpoint of the concentration-response curve. A word on the half-life: it is the time in which the quantity being followed falls by half. Higher therefore signals slow decline.

Regarding enfuvirtide, the EC50 in data set [1] was determined as 0.275 µM; in data set [2], 0.003 µM; in data set [3], 0.0177 µM; in [4], 0.0179 µM; in data set [5] it was 0.0124 µM; in data set [6], 0.0179 µM. Moreover, the EC50 in data set [7] is 0.0063 µM; in data set [8] it was 0.36 µM; in [9], 0.0036 µM; in data set [10] it was 0.0559 µM; in data set [12] it was 0.0179 µM. For the same molecule, the Activity result with CCRF-CEM and in the data set on PBMC was “Toxic” throughout. The molecule further showed a half-life in data set [11] of 2.8 h.
On to `Cc1nnc(C(C)C)n1[C@H]1C[C@H]2CC[C@@H](C1)N2CC[C@H](NC(=O)C1CCC(F)(F)CC1)c1ccccc1` [MARAVIROC], for which the EC50 in data set [3] was 0.0036 µM; in data set [4], 0.0038 µM; in [5] it was 0.0004 µM; in data set [6], 0.0037 µM; in [7], 0.0003 µM; in [9] it was greater than 1 µM. In addition, the EC50 in data set [10] is 0.0026 µM; in data set [12] it was greater than 1 µM.
On to `c1cc(CN2CCCNCCNCCCNCC2)ccc1CN1CCCNCCNCCCNCC1` [PLERIXAFOR], for which the EC50 in data set [3] is greater than 1 µM; in data set [4], greater than 1 µM; in [5], greater than 1 µM; in data set [6], greater than 1 µM; in data set [7], greater than 1 µM; in data set [9], 0.0036 µM. For the same molecule, the EC50 was greater than 1 µM in data set [10] and 0.0185 µM in data set [12].
